Assay results: patent US20210069295A1, “GALECTINS CONTROL MTOR IN RESPONSE TO ENDOMEMBRANE DAMAGE AND PROVIDE A MECHANISM AND TARGET FOR THE TREATMENT OF AUTOPHAGY-RELATED DISEASES” (STC. UNM, priority 2017, published 2021)
Peptide text beside a SMILES is read from it.

Tested on: mTOR
Experiment: mTOR localization relative to LAMP2-positive lysosomes (HC and confocal microscopy)
Type: cell-based
Description: (A) Dose-response analysis of mTOR activity in HEK293T cells treated with glycyl-L-phenylalanine 2-naphththylamide (GPN) in full medium for 1 h. mTOR activity was monitored by inununoblotting analysis of S6K1 (T389) and ULK1 (S757) phosphorylation (phosphorylated S6K (T389) and ULK1 (S757) relative to total S6K and ULK1, respectively). (B) Analysis of mTOR activity (as in A) after GPN washout. HEK293T cells were treated with 100 μM GPN for 1 h followed by 1 h washout in full medium. Data, means±SEM (n=3), **p<0.01, ANOVA. (C) Analysis of mTOR activity (as in A) in HEK293T cells treated with increasing doses of silica in full medium for 1 h. (D) HEK293T cells were treated with lysosomal damaging agents (LLOMe, Leu-Leu-OMe) for 1 h in full medium and status of acidified organelles assessed by quantifying LysoTracker Red DND-99 puncta using automated high-content imaging and analysis (HC). None-treated cells were as control (Ctrl). White masks, algorithm defined cell boundaries (primary objects); yellow masks, computer-identified LysoTracker Red puncta (target objects). Data, means±SEM, n≥3 independent experiments (500 primary objects counted per well; ≥5 wells/sample per each experiment), **p<0.01, ANOVA. (E) Analysis of mTOR activity in primary human macrophages treated with GPN. Human peripheral blood monocyte derived macrophages were treated with 100 μM GPN in full medium or starved in EBSS for 1 h, and mTOR activity measured as in A. None-treated cells were as control (Ctrl). (F) Quantification by HC of overlaps between mTOR and LAMP2 (representative images shown in FIG. S1D) in HeLa cells treated with lysosomal damaging agents for 1 h in full medium. Data, means±SEM, n≥3 independent experiments (500 primary objects counted per well; ≥5 wells/sample per each experiment) **p<0.01, ANOVA. (G) Immunofluorescence confocal microscopy visualization of mTOR localization relative to LAMP2-positive lysosomes. […] (H) Analysis of TFEB nuclear translocation in HeLa cells treated with 100 μM GPN in full medium for 1 h, and the nuclear translocation of TFEB was measured by HC (Nuclei, Hoechst 33342, blue pseudocolor; TFEB red fluorescence, Alexa-568). […] White masks, computer algorithm-defined cell boundaries (primary objects); pink masks, computer-identified nuclear TFEB based on the average intensity of Alexa-568 fluorescence. Data, means±SEM, n≥3 independent experiments (500 primary objects counted per well; ≥5 wells/sample per each experiment), **p<0.01, ANOVA. (I) HeLa cells were treated as indicated in full medium for 1 h, and LC3 puncta were quantified by HC. […] Data, means±SEM, n≥3 independent experiments (500 primary objects counted per well; ≥5 wells/sample per each experiment), **p<0.01, ANOVA. […]

Structure (SMILES): NCC(=O)N[C@@H](Cc1ccccc1)C(=O)Nc1ccc2ccccc2c1 [GPN, glycyl-L-phenylalanine 2-naphththylamide] (HELM PEPTIDE1{G.F.[c1ccc2cc(N[*:1])ccc2c1]}$$$$V2.0)
- mTOR localization in cells expressing RagBQ99L (HEK293T stably expressing RagBQ99L, 100 μM GPN 1 h): remained on lysosomes
- mTOR localization (lysosomes vs cytosol, overlap with LAMP2) (HeLa cells, 1 h full medium): translocated from lysosomes to the cytosol
